Measured values: the supplement of paper PMC10307832

Key:
Experiment in all cases: relative viability (nuclei count vs DMSO), 5 days (fraction); higher = more cells survive
NCI-H2087 = system: NCI-H2087
Outline: (§1)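 After 5 days of treatment, lung cancer cells in 1536-well plates were fixed and stained in a single step (final 0.05% Triton X-100, 1% formaldehyde, 1 ug/ml Hoechst) and their nuclei counted on 4× images. Treatment had been applied by pin tool the day after seeding as one drug alone or as a fixed anchor-drug dose with five library-drug doses (not always all listed) in √10 steps. Relative viability is the nuclei count of treated wells divided by that of vehicle wells, and values are medians of duplicate plates.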

201T = system: 201T
Outline: as §1

NCI-H1437 = system: NCI-H1437
Outline: as §1

NCI-H1666 = system: NCI-H1666
Outline: as §1

NCI-H2342 = system: NCI-H2342
Outline: as §1

LCLC-97TM1 = system: LCLC-97TM1
Outline: as §1

EKVX = system: EKVX
Outline: as §1

EPLC-272H = system: EPLC-272H
Outline: as §1

HCC-827 = system: HCC-827
Outline: as §1

LOU-NH91 = system: LOU-NH91
Outline: as §1

COR-L 105 = system: COR-L 105
Outline: as §1

HCC-44 = system: HCC-44
Outline: as §1

COc1cc(N2CCC(C(N)=O)CC2)ccc1Nc1nc(N)c(Cl)c(Nc2ccccc2S(=O)(=O)C(C)C)n1 [HG-5-88-01] + O=C(c1cc(Cc2n[nH]c(=O)c3ccccc23)ccc1F)N1CCN(C(=O)C2CC2)CC1 [Olaparib] (partner 8 µM)
relative viability (NCI-H2087; first compound 0.04 µM): 0.557 | relative viability (NCI-H2087; first compound 0.1265 µM): 0.645 | relative viability (NCI-H2087; first compound 0.4 µM): 0.585 | relative viability (NCI-H2087; first compound 1.265 µM): 0.536 | relative viability (NCI-H2087; first compound 4 µM): 0.502 | relative viability (201T; first compound 0.04 µM): 0.841 | relative viability (201T; first compound 0.1265 µM): 0.844 | relative viability (201T; first compound 1.265 µM): 0.795 | relative viability (201T; first compound 4 µM): 0.831 | relative viability (NCI-H1437; first compound 0.04 µM): 0.645 | relative viability (NCI-H1437; first compound 0.1265 µM): 0.609 | relative viability (NCI-H1437; first compound 0.4 µM): 0.607 | relative viability (NCI-H1437; first compound 1.265 µM): 0.631 | relative viability (NCI-H1437; first compound 4 µM): 0.557 | relative viability (NCI-H1666; first compound 0.04 µM): 0.759 | relative viability (NCI-H1666; first compound 0.1265 µM): 0.737 | relative viability (NCI-H1666; first compound 0.4 µM): 0.816 | relative viability (NCI-H1666; first compound 1.265 µM): 0.771 | relative viability (NCI-H1666; first compound 4 µM): 0.684 | relative viability (NCI-H2342; first compound 0.04 µM): 0.449 | relative viability (NCI-H2342; first compound 0.1265 µM): 0.538 | relative viability (NCI-H2342; first compound 0.4 µM): 0.473 | relative viability (NCI-H2342; first compound 4 µM): 0.474 | relative viability (LCLC-97TM1; first compound 0.04 µM): 0.434 | relative viability (LCLC-97TM1; first compound 0.1265 µM): 0.396 | relative viability (LCLC-97TM1; first compound 0.4 µM): 0.398 | relative viability (LCLC-97TM1; first compound 1.265 µM): 0.26 | relative viability (LCLC-97TM1; first compound 4 µM): 0.193 | relative viability (EKVX; first compound 0.04 µM): 0.896 | relative viability (EKVX; first compound 0.1265 µM): 0.955 | relative viability (EKVX; first compound 0.4 µM): 0.813 | relative viability (EKVX; first compound 4 µM): 0.633 | relative viability (EPLC-272H; first compound 0.04 µM): 0.976 | relative viability (EPLC-272H; first compound 0.1265 µM): 0.785 | relative viability (EPLC-272H; first compound 0.4 µM): 0.959 | relative viability (EPLC-272H; first compound 1.265 µM): 0.495 | relative viability (EPLC-272H; first compound 4 µM): 0.0585 | relative viability (HCC-827; first compound 0.04 µM): 0.695 | relative viability (HCC-827; first compound 0.1265 µM): 0.676 | relative viability (HCC-827; first compound 0.4 µM): 0.363 | relative viability (HCC-827; first compound 1.265 µM): 0.203 | relative viability (HCC-827; first compound 4 µM): 0.24 | relative viability (LOU-NH91; first compound 0.04 µM): 0.861 | relative viability (LOU-NH91; first compound 0.1265 µM): 0.882 | relative viability (LOU-NH91; first compound 0.4 µM): 0.733 | relative viability (LOU-NH91; first compound 1.265 µM): 0.514 | relative viability (LOU-NH91; first compound 4 µM): 0.618 | relative viability (COR-L 105; first compound 0.04 µM): 0.752 | relative viability (COR-L 105; first compound 0.1265 µM): 0.765 | relative viability (COR-L 105; first compound 0.4 µM): 0.708 | relative viability (COR-L 105; first compound 1.265 µM): 0.692 | relative viability (COR-L 105; first compound 4 µM): 0.683 | relative viability (HCC-44; first compound 0.04 µM): 0.912 | relative viability (HCC-44; first compound 0.1265 µM): 0.957 | relative viability (HCC-44; first compound 0.4 µM): 0.934 | relative viability (HCC-44; first compound 1.265 µM): 0.921 | relative viability (HCC-44; first compound 4 µM): 0.919
